Data reported in US20250091994A1, “RAS/RAF BINDING INHIBITOR COMPOUND” (NATIONAL UNIVERSITY CORPORATION KOBE UNIVERSITY, priority 2021, published 2025).
Values belong to the compound of their own block, whether it stands above or below them.

How the values were obtained:
[1] = system: acute lymphoblastic leukemia cells CCRF-CEM (K-RasG12D); test: Cell growth inhibition, suspension cells CCRF-CEM; type: cell-based; conditions: Homo sapiens, 72 hours; for inhibition at 1 µM: read-out: CCRF-CEM (KRasG12D) % inhibition at 1 μM; for inhibition at 3.2 µM: read-out: CCRF-CEM (KRasG12D) % inhibition at 3.2 μM (***)
Method: (§1) The cell growth inhibitory activity of the compound of the present invention on human culture cells having active-type mutation in Ras was evaluated by the below-mentioned method using suspension cancer cells {acute lymphoblastic leukemia cells CCRF-CEM (K-RasG12D), promyelocytic leukemia cells HL60 (N-RasQ61L), acute lymphoblastic leukemia cells MOLT4 (N-RasG12C), and small cell lung cancer cells SHP77 (K-RasG12V)} and adherent cancer cells {large bowel cancer cells SW480 (K-RasG12V) and large bowel cancer cell SW620 (K-RasG12V)}.
(§2) (Case of suspension cells) The cells suspended in a medium containing 0.5% (v/v) fetal bovine serum (FBS) and each compound solution (final DMSO concentration: 1%) were seeded on a 96-well plate (2 to 4×10^4 cells/well), and the resulting mixture was then cultured at 37° C. in the presence of 5% CO2 for 72 hours.
(§3) Thereafter, the number of viable cells was measured using Cell Counting Reagent (Nacalai Tesque) in accordance with the manufacturer's instructions. Inhibition by the test compound was determined according to the following equation: […]

[2] = system: acute lymphoblastic leukemia cells MOLT4 (N-RasG12C); test: Cell growth inhibition, suspension cells MOLT4; type: cell-based; conditions: Homo sapiens, MOLT-4, 72 hours; for inhibition at 10 µM: read-out: MOLT-4 (NRasG12C) % inhibition at 10 μM (**); for inhibition at 3.2 µM: read-out: MOLT-4 (NRasG12C) % inhibition at 3.2 μM (***)
Method: as §1, §2, §3

[3] = target: GTPγS-bound human HRasG12V / human c-Raf-1 Ras binding domain (RBD) (Homo sapiens (Human), UniProt P01112, G12V); test: Ras-Raf binding inhibition ELISA; conditions: for IC50: anti-HRas antibody C-20, read-out: ELISA IC50 (μM): 1st Ab_C-20
Method in brief: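 GST-c-Raf-1 RBD (aa 50-131) immobilized on glutathione plates, then GTPγS-loaded full-length HRasG12V added with compound (final 10% DMSO), 1 h at 30 °C, pH 7.4 Tris buffer. Bound Ras detected by anti-HRas antibody (C-20 or 259) and HRP secondary, TMB read at OD450; IC50 from inhibition.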

[4] = system: promyelocytic leukemia cells HL60 (N-RasQ61L); test: Cell growth inhibition, suspension cells HL60; type: cell-based; conditions: Homo sapiens, HL-60, 72 hours; for inhibition at 1 µM: read-out: HL-60 (NRasQ61L) % inhibition at 1 μM; for inhibition at 10 µM: read-out: HL-60 (NRasQ61L) % inhibition at 10 μM (***); for inhibition at 3.2 µM: read-out: HL-60 (NRasQ61L) % inhibition at 3.2 μM (****)
Method in brief: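 Suspension cells, 2 to 4×10^4 per well, cultured with compound in medium with 0.5% FBS (1% DMSO final) for 72 h at 37° C, 5% CO2. Viable cells counted with Cell Counting Reagent; inhibition calculated relative to controls.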

[5] = system: phosphorylated ERK (pERK) in HL60 cells; test: Ras-Raf signaling inhibition at culture cell level, pERK; type: cell-based; conditions: Homo sapiens, HL-60; HL60 (N-RasQ61L), 1 μM test compound, 3 hours
Method: (§4) The Ras-Raf signaling inhibitory activity of the compound of the present invention at a culture cell level was evaluated by the following method.
(§5) The HL60 cells described in Test Example 2 suspended in a medium containing 0.5% (v/v) FBS with each compound solution (final DMSO concentration: 1%), were seeded on a 12-well plate (2 to 4×10^5 cells/well), and the resulting mixture was then cultured at 37° C. in the presence of 5% CO2 for 3 hours.
(§6) After completion of the cell culture, proteins were extracted from the cells, using RIPA Buffer (Nacalai Tesque) containing a mixture of protease inhibitors and phosphatase inhibitors. An equivalent amount of protein was separated by standard SDS-PAGE and was then transferred onto a PVDF membrane. In order to detect the activation (phosphorylation) of MEK and ERK, downstream molecules of the Ras-Raf signaling pathway, the membrane was probed with 1000-fold diluted primary antibodies {phosphorylated MEK (pMEK: #9121), phosphorylated ERK (pERK: #9101), total MEK (tMEK: #9122), and total ERK (tERK: 9102); all from Cell signaling}, and then with a 1000-fold diluted horseradish peroxidase-labeled secondary antibody against rabbit immunoglobulin G. The immunoreactive signals were colored with EzWestLumi One (ATTO), and were then detected by Fusion FX (Vilber). Signal intensity was quantified by pixel counting. Inhibition by the test compound was determined according to the following equation: […]

[6] = system: phosphorylated MEK (pMEK) in HL60 cells; test: Ras-Raf signaling inhibition at culture cell level, pMEK; type: cell-based; conditions: Homo sapiens, HL-60; HL60 (N-RasQ61L), 1 μM test compound, 3 hours
Method: as §4, §5, §6

[7] = system: large bowel cancer cells SW480 (K-RasG12V); test: Cell growth inhibition, adherent cells SW480; type: cell-based; conditions: Homo sapiens, 72 hours, read-out: SW480 (KRasG12V) % inhibition at 10 μM
Method: as §1
(Case of adherent cells) The cells suspended in a medium containing 10% FBS (1 to 2×10^4 cells/well) were seeded on a 96-well plate, and were then cultured at 37° C. in the presence of […]. Thereafter, the medium was exchanged with a medium containing […], to which each compound solution (final DMSO concentration: […]) had been added, and the cells were then cultured at 37° C. in the presence of […] for 72 hours.
as §3

[8] = system: small cell lung cancer cells SHP77 (K-RasG12V); test: Cell growth inhibition, suspension cells SHP77; type: cell-based; conditions: Homo sapiens, 3.3 μM (*), 72 hours, read-out: SHP77 (KRasG12V) % inhibition at 3.3 μM (*)
Method: as §1, §2, §3

[9] = system: large bowel cancer cell SW620 (K-RasG12V); test: Cell growth inhibition, adherent cells SW620; type: cell-based; conditions: Homo sapiens, SW-620, 72 hours; for inhibition at 3.2 µM: read-out: SW620 (KRasG12V) % inhibition at 3.2 μM (***)
Method in brief: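 Adherent cells, 1 to 2×10^4 per well, grown overnight in 10% FBS, then exposed to compound in low-serum medium […] for 72 h at 37° C. Viable cells counted with Cell Counting Reagent; inhibition calculated relative to controls.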

Sequence of GTPγS-bound human HRasG12V / human c-Raf-1 Ras binding domain (RBD) (P01112 whole entry G12V, the tested form may be a part): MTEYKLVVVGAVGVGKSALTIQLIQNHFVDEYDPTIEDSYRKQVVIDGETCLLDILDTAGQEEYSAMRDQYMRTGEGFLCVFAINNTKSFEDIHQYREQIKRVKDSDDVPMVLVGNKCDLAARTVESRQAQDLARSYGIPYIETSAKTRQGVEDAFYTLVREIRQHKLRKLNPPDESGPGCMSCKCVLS

Structure (SMILES): COc1cc(/C=C2/C(=O)c3ccccc3N2C(C)=O)ccc1OS(C)(=O)=O [Example 21, 4-((1-acetyl-3-oxoindolin-2-ylidene)methyl)-2-methoxyphenyl methanesulfonate]
inhibition at 1 µM [1]: 97%
inhibition at 3.3 µM ([2]; 3.3 μM (*), read-out: MOLT-4 (NRasG12C) % inhibition at 3.3 μM (*)): 100%
inhibition at 1 µM [4]: 43%

Structure (SMILES): CC(=O)N1/C(=C/c2nc3cc(C(=O)N4CCOCC4)ccc3s2)C(=O)c2ccccc21 [Example 48, (E)-1-acetyl-2-((5-(morpholine-4-carbonyl)benzo [d]thiazol-2-yl)-methylene)indolin-3-one]
inhibition at 1 µM [1]: 69%
inhibition at 1 µM [5]: 96%
inhibition at 10 µM [4]: 100%
inhibition at 1 µM [6]: 81%

Structure (SMILES): CC(=O)N1/C(=C/c2nc3ccc(C(=O)N4CCOCC4)cc3s2)C(=O)c2ccccc21 [Example 58, (E)-1-acetyl-2-((6-(morpholine-4-carbonyl)benzo [d]thiazol-2-yl)-methylene)indolin-3-one]
inhibition at 1 µM [1]: 45%
inhibition at 1 µM [5]: 100%
inhibition at 10 µM [4]: 99%
inhibition at 1 µM [6]: 72%

Structure (SMILES): CC(=O)N1/C(=C/c2ncc(C(=O)N3CCOCC3)s2)C(=O)c2ccccc21 [Example 68, (E)-1-acetyl-2-((5-(morpholine-4-carbonyl)thiazol-2-yl)methylene)-indolin-3-one]
inhibition at 10 µM [7]: 52%
inhibition at 3.3 µM ([1]; 3.3 μM (*), read-out: CCRF-CEM (KRasG12D) % inhibition at 3.3 μM(*)): 80%
inhibition at 1 µM [5]: 93%
inhibition at 1 µM [4]: 37%
inhibition at 1 µM [6]: 68%
inhibition at 3.3 µM [8]: 67%

Structure (SMILES): CCCCOc1cc(/C=C2/C(=O)c3ccccc3N2C(C)=O)nc2ccc(C(=O)N3CCOCC3)cc12 [Example 84, (Z)-1-acetyl-2-((4-butoxy-6-(morpholine-4-carbonyl)quinolin-2-yl)methylene)-indolin-3-one]
inhibition at 1 µM ([9]; 1 μM, read-out: SW620 (KRasG12V) % inhibition at 1 μM): 90%
inhibition at 1 µM [5]: 63%
inhibition at 1 µM [4]: 96%
inhibition at 1 µM [6]: 58%

Structure (SMILES): CC(=O)N1/C(=C\c2cc(-c3cccc(-c4cnn(C)c4)c3)c3cc(CNC4CCOCC4)ccc3n2)C(=O)c2ccccc21 [Example 210, (Z)-1-acetyl-2-((4-(3-(1-methyl-1H-pyrazol-4-yl)-phenyl)-6-(((tetra-hydro-2H-pyran-4-yl)amino)meth-yl)quinolin-2-yl)-methylene)indolin-3-one]
inhibition at 3.2 µM [9]: 78%
inhibition at 3.2 µM [1]: 97.5%
inhibition at 3.2 µM [2]: 96.2%
inhibition at 3.2 µM [4]: 97.3%
inhibition at 1 µM [3]: 66.9%
IC50 [3]: 0.6 µM

Continued, in another order:

IC50 [3]: 7.6 µM
Structure (SMILES): CC(=O)N1C(=Cc2ccc(OCC(=O)N3CCOCC3)c(F)c2)C(=O)c2ccccc21 (racemic) [Example 16, 1-acetyl-2-(3-fluoro-4-(2-morpholino-2-oxoethoxy)-benzylidene)-indolin-3-one]
inhibition at 1 µM [1]: 56%
inhibition at 10 µM [2]: 100%

IC50 [3]: 5.8 µM
Structure (SMILES): CC(=O)N1C(=Cc2cc(F)c(OCC(=O)N3CCOCC3)c(F)c2)C(=O)c2ccccc21 (racemic) [Example 19, 1-acetyl-2-(3,5-difluoro-4-(2-morpholino-2-oxoethoxy)-benzylidene)-indolin-3-one]
inhibition at 1 µM [1]: 83%
inhibition at 10 µM [2]: 100%

inhibition at 10 µM [3]: 54%
Structure (SMILES): COCCOc1ccc(/C=C2/C(=O)c3ccccc3N2C(C)=O)cc1OC [Example 11, 1-acetyl-2-(3-methoxy-4-(2-methoxyethoxy)-benzylidene)-indolin-3-one]
inhibition at 1 µM [1]: 55%
inhibition at 10 µM [2]: 100%

IC50 [3]: 2.4 µM
Structure (SMILES): CC(=O)N1/C(=C\c2cc(CN3CCOCC3)c3ccccc3n2)C(=O)c2ccccc21 [Example 181, (Z)-1-acetyl-2-((4-(morpholinometh-yl)quinolin-2-yl)-methylene)indolin-3-one]
inhibition at 3.2 µM [9]: 74.3%
inhibition at 3.2 µM [1]: 98.2%
inhibition at 3.2 µM [2]: 96.3%
inhibition at 3.2 µM [4]: 96.7%

inhibition at 1 µM [3]: 46.7%
IC50 [3]: 1.3 µM
Structure (SMILES): CC(=O)N1/C(=C\c2cc(CNC3CCOCC3)c3ccccc3n2)C(=O)c2ccccc21 [Example 208, (Z)-1-acetyl-2-((4-(((tetrahydro-2H-pyran-4-yl)-amino)methyl)-quinolin-2-yl)-methylene)indolin-3-one]
inhibition at 3.2 µM [9]: 81.1%
inhibition at 3.2 µM [1]: 97%
inhibition at 3.2 µM [2]: 96.2%
inhibition at 3.2 µM [4]: 95.1%

inhibition at 1 µM [3]: 71.2%
Structure (SMILES): CC(=O)N1CCc2cc(-c3cc(/C=C4/C(=O)c5ccccc5N4C(C)=O)nc4ccc(CNC5CCOCC5)cc34)ccc2C1 [Example 209, (Z)-1-acetyl-2-((4-(2-acetyl-1,2,3,4-tetrahydro-isoquinolin-6-yl)-6-(((tetrahydro-2H-pyran-4-yl)-amino)methyl)-quinolin-2-yl)-methylene)indolin-3-one]
inhibition at 3.2 µM [9]: 94.4%
inhibition at 3.2 µM [1]: 97.8%
inhibition at 3.2 µM [2]: 96.7%
inhibition at 3.2 µM [4]: 96.7%
